{"source": "patent US4770997A", "about": "“Thermostable bilirubin oxidase and production process thereof” (Toyo Jozo Co., Ltd., priority 1985, dated 1988)", "key": {"[1]": {"test_system": "Bacillus licheniformis B-0891 (FERM BP-952) bilirubin oxidase (Invention Sample)", "experiment": "Km value of the thermostable bilirubin oxidase of this invention", "assay_type": "biochemical", "details": "at pH 8.0; substrate bilirubin", "description": "A reaction mixture (1.49 ml) of the above composition was placed in a small test tube. After heating it to 37° C., 0.01 ml of a 10 mM bilirubin solution was added to initiate the reaction. They were reacted at 37° C. for 10 minutes. After the reaction, 1.5 ml of 1% CPC (N-cetylpyridinium chloride) was added to terminate the reaction and the reaction mixture was subjected to the colorimetric analysis at 453 nm to determine its absorbance [S]. On the other hand, as a blank, a reaction mixture (1.44 ml) of the same type as the above-employed reaction mixture except for the exclusion of the enzyme solution was added with 0.01 ml of the bilirubin solution. The resultant mixture was incubated at 37° C. for 10 minutes precisely. Thereafter, 1.5 ml of 1% CPC and 0.05 ml of the bilirubin oxidase solution were added successively. The thus-prepared mixture was subjected to the colorimetric analysis at 453 nm to determine its absorbance [B]. The enzymatic activity is calculated in accordance with the following equation: [formula] wherein 1 unit (U) of the enzymatic activity is defined as the amount of enzyme which oxidizes 1 μmol of bilirubin per minute under the above-described conditions."}, "[2]": {"biological_target": "T1, bilirubin oxidase originated from Myrothecium (Prior Art Sample No. 3) (Albifimbria verrucaria, UniProt Q12737)", "T1 sequence (Q12737 39-572)": "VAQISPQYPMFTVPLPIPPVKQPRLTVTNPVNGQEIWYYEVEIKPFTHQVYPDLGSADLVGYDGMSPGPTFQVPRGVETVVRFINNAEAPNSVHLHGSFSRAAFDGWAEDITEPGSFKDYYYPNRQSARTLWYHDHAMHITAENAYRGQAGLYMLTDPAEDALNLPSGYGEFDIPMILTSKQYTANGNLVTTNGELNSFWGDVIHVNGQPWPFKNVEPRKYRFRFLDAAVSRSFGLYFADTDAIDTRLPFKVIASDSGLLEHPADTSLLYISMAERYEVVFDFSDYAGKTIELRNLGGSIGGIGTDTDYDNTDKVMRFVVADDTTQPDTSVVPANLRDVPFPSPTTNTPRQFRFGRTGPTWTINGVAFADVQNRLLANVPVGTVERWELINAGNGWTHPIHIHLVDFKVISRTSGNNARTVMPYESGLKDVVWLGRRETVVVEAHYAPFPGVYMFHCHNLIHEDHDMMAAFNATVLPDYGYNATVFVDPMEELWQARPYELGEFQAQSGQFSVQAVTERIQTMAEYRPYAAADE", "details": "Prior Art Sample No. 3, originated from Myrothecium; substrate bilirubin; cited from earlier work"}}, "data": [{"smiles": "C=CC1=C(C)/C(=C/c2[nH]c(Cc3[nH]c(/C=C4\\NC(=O)C(C)=C4C=C)c(C)c3CCC(=O)O)c(CCC(=O)O)c2C)NC1=O", "note": "[Bilirubin]", "values": [{"measurement": "Km", "setting": "[1]", "result": 28.6, "unit": "µM"}, {"measurement": "Km", "setting": "[2]", "result": 190, "unit": "µM"}]}]}
